{"source": "patent US5633230A", "about": "“Treatment of cytomegalovirus infection” (priority 1994, dated 1997)", "key": {"CMV strain AD-169 [1]": {"tested_on": "CMV strain AD-169", "assay": "plaque reduction assay, CMV AD-169 in MRC-5 cells", "assay_type": "cell-based, human CMV", "conditions": "CMV AD-169, MRC-5 (human embryonic lung), 24 h drug pretreatment", "description": "(§1) The following procedures were then used to determine inhibitory effects of AV-9 on the replication of CMV. […] This was accomplished by diluting the stock peptide solution in growth medium (10% fetal bovine serum and 10 μg/ml gentamicin in Dulbecco's MEM (DMEM)) used to overlay the monolayers.\n(§2) After pretreatment with AV-9, the monolayers were overlaid with 0.1 ml log10 dilutions of virus (CMV strain AD-169) ranging from 10^-1 to 10^-6. Virus was then allowed to adsorb for 1 hour at 37° C. The virus inoculum was removed and the monolayers were overlayed with DMEM containing 2% FBS, 10 ug/ml gentamicin and a specified concentration of AV-9. Virus was next allowed to replicate for 7 to 10 days until the plaques were judged to be well developed, and then the monolayers were fixed and stained with a solution of 1% crystal violet in 1% formaldehyde,70% ethanol. Finally, plaques (each representing a single viable virion) were counted and checked microscopically.\n(§3) In a like manner, plaque reduction assays were also performed against other CMV strains and another CMV host, with comparison against ganciclovir (GCV) and foscarnet (FCV)."}, "[2]": {"conditions": "mouse, in vivo", "description": "Ten mice were injected intravenously in the tail vein with 0.25 mL of a solution of 26 μg of ^14 C-labelled compound in 10 mL PBS, and ten mice were given the same dose by subcutaneous injection in the abdomen. One mouse from each group was sacrificed at the time points noted in FIGS. 1 and 2, and the noted organs were weighed and digested to homogeneity for scintillation counting. Counts were measured and used to calculate the amount and concentration of drug in each organ."}, "[3]": {"tested_on": "ganciclovir-resistant CMV strains 759^r D100 and GDG^r K17 and foscarnet-resistant CMV strains PFA^r D100 and PFA^r B300", "conditions": "range over strains 759^r D100, GDG^r K17, PFA^r D100, PFA^r B300; MRC-5; drug pre- and post-infection", "experimental": "This stock solution was subsequently diluted in cell culture medium to obtain the test concentrations used in the study. Ganciclovir (GCV) was dissolved in sterile, deionized water, and the drug concentration measured spectrophotometrically (7.8mM). Foscarnet (phosphonoformic acid, PFA) was dissolved in sterile, deionized water to a final concentration of 100 mM. Aliquots of the stock solutions were stored at -70° C.\nDrug-resistant human CMV strains 759^r D100, GDG^r K17, PFA^r D100 and PFA^r B300 were obtained from Dr. Donald M. Coen, Harvard Medical School, Boston, Mass.\nThe drug stock solutions were diluted with fresh culture medium to obtain the desired test concentrations in the range 0.5-2500 μM.\nMRC-5 cells (4-5×10^5 per well) were grown for 24 hours at 37° C. in 5% CO2 atmosphere in D-MEM/F-12FBS medium containing varying concentrations of drug. At the end of the pre-treatment period, the cells were infected with a suspension containing 50 plaque forming units of CMV (MOI=0.0001). The virus was allowed to absorb for 60 minutes at 37° C. in the absence of drug, at which time the virus innoculum was washed away, and the cells fed with fresh growth medium containing drug. […] Vital plaques were counted under a microscope after removing the culture medium from the wells, staining the cells with 1.1% Crystal Violet solution, and washing twice with tap water. […]"}, "CMV strain Davis": {"tested_on": "CMV strain Davis", "conditions": "MRC-5, plaque reduction, 24 h drug pretreatment", "description": "The following procedures were then used to determine inhibitory effects of AV-9 on the replication of CMV. First, confluent monolayers of the human diploid cell line, MRC-5 (ATCC# CCL 171) in 24 well cell culture plates were pretreated with specified concentrations (20 μM, 10 μM, 5 μM, 2.5 μM, 1.0 μM, 0.5 μM and 0.0 μM) of AV-9 for 24 hours. This was accomplished by diluting the stock peptide solution in growth medium (10% fetal bovine serum and 10 μg/ml gentamicin in Dulbecco's MEM (DMEM)) used to overlay the monolayers.\nas §2, §3"}, "[4]": {"assay": "blood levels after single subcutaneous injection of labelled compound", "assay_type": "in vivo", "conditions": "mice", "description": "Blood levels in mice resulting from single subcutaneous injection of a 53 μg dose of the labelled compound were also evaluated. […] Peak levels were maintained for about 20 minutes. At 40 minutes and 2 hours, blood levels had declined to about 80% of peak values. […] Evidently, the compound AV-9 reaches the bloodstream rapidly."}, "[5]": {"tested_on": "Smith strain of murine CMV", "assay": "murine CMV infection in cyclophosphamide-immunosuppressed mice", "assay_type": "in vivo, BALB/c mice", "conditions": "for Surv/Total / Mean Day to Death ± S.D.: infected mice", "text": "This immunosuppression model mimics the human patient situation, wherein the HCMV-induced disease in immunosuppressed individuals can often be fatal. The particular model used for evaluating potential antiviral activity has been described by Smee et al in J. Infect. Dis., 1991, 164: 958.\nThe Smith strain of murine CMV, obtained originally from the American Type Culture Collection (Rockville, Md.) was used. A mouse salivary gland preparation was used for the virus pool. An inoculation of 2×10^4 plaque forming units of the virus was used in the antiviral study. Female BALB/c mice weighing 10-12 g were quarantined 24 hr prior to use, and maintained on Wayne Lab Blox and tap water ad libitum the duration of the study.\nGanciclovir (DHPG) was purchased from a commercial source, and cyclophosphamide was purchased from Sigma Chemical Co. (St. Louis, Mo.).\nTo determine tissue virus titre, homogenates of infected mouse organs were titrated for virus using C127/I cells in 96-well microplates. Each tissue sample was homogenized and titrated separately with 3 micro wells used per dilution; plates were read by microscopic examination for viral-induced cytopathic effect, with 50% end points determined by the Reed-Muench method. Mean viral titers were expressed at 50% cell culture infectious doses (CCID50)/gram of tissue.\nFor statistical evaluation, increases in mean day to death and reductions in viral titers were assessed using the two-tailed Mann-Whitney U test. Total survivor increases were evaluated by chi square analysis with Yates'."}, "physchem": {"assay": "physchem", "conditions": "water"}, "CMV strain AD-169 [6]": {"tested_on": "CMV strain AD-169", "assay": "CPE assay, CMV AD-169 in HFF cells", "assay_type": "cell-based", "conditions": "CMV AD-169, HFF (human foreskin fibroblast), without 24 h drug pretreatment", "text": "*CPE assay, all others are plaque reduction assays."}, "CMV strain Towne": {"tested_on": "CMV strain Towne", "assay_type": "cell-based, human CMV", "conditions": "HFF, plaque reduction, without 24 h drug pretreatment", "description": "as §1\n[…] Virus was then allowed to adsorb for 1 hour at 37° C. The virus inoculum was removed and the monolayers were overlayed with DMEM containing 2% FBS, 10 ug/ml gentamicin and a specified concentration of AV-9. Virus was next allowed to replicate for 7 to 10 days until the plaques were judged to be well developed, and then the monolayers were fixed and stained with a solution of 1% crystal violet in 1% formaldehyde,70% ethanol. Finally, plaques (each representing a single viable virion) were counted and checked microscopically.\nas §3"}, "[7]": {"conditions": "single s.c. injection, 53 μg labelled compound"}, "[8]": {"conditions": "0.2 mg/kg/day i.p. every other day, day 9"}, "[9]": {"conditions": "0.2 mg/kg/day i.p. every other day, 9 days after virus challenge"}, "[10]": {"conditions": "0.1 mg/kg/day i.p., daily days -2 through +10"}, "[11]": {"conditions": "0.7 mg/kg/day i.p., days -2,0,+2,+4,+6,+8,+10"}, "[12]": {"conditions": "2.0 mg/kg/day i.p., days -2,0,+2,+4,+6,+8,+10"}}, "note": "“And” between values parts separate entries of the source, which are not always exact repeats. Equal entries are not always repeated.", "data": [{"smiles": "CC(=O)N[C@H](CCCNC(=N)N)C(=O)N[C@H](CCCNC(=N)N)C(=O)N[C@H](CCCNC(=N)N)C(=O)N[C@H](CCCNC(=N)N)C(=O)N[C@H](CCCNC(=N)N)C(=O)N[C@H](CCCNC(=N)N)C(=O)N[C@H](CCCNC(=N)N)C(=O)N[C@H](CCCNC(=N)N)C(=O)N[C@H](CCCNC(=N)N)C(N)=O", "note": "[AV-9, acetyl-[D-Arg]9 -NH2]", "values": [{"measurement": "IC50", "setting": "CMV strain AD-169 [1]", "value": "2600 nM and 4800 nM and 2700 nM"}, {"measurement": "speed of distribution to tissues", "setting": "[2]", "value": "rapid distribution of drug to tissues"}, {"measurement": "tissue distribution, organs with highest levels", "setting": "[2]", "value": "highest and most prolonged levels are attained in the liver, followed by the kidneys and spleen"}, {"measurement": "IC50", "setting": "[3]", "value": "1300 to 2100", "unit": "nM"}, {"measurement": "IC50", "setting": "CMV strain Davis", "value": 2300, "unit": "nM"}, {"measurement": "blood level relative to peak values", "setting": "[4]; at 40 minutes and 2 hours, single s.c. 53 μg", "value": "about 80%"}, {"measurement": "blood level relative to peak", "setting": "[4]; at 4 hour, single s.c. 53 μg", "value": "about 10%"}, {"measurement": "blood level", "setting": "[4]; at 8 hours and 24 hours, single s.c. 53 μg", "value": "threshold of detection"}, {"measurement": "time near peak blood levels are maintained", "setting": "[4]; single s.c. 53 μg, summary statement", "value": "20 to 120", "unit": "min"}, {"measurement": "near-peak blood level", "setting": "[4]; [7]", "value": "around 1 μg/ml"}, {"measurement": "time peak blood levels were maintained", "setting": "[4]; [7]", "value": "about 20 minutes"}, {"measurement": "time to near-peak blood levels following injection", "setting": "[4]; [7]", "value": 5, "unit": "min"}, {"measurement": "animals without detectable virus in lungs", "setting": "[5]; [8]", "value": "one had no detectable virus"}, {"measurement": "animals without detectable virus in spleen, of the five sampled", "setting": "[5]; [8]", "value": "three had no detectable virus"}, {"measurement": "effect on salivary gland virus titers", "setting": "[5]; [8]", "value": "No effect"}, {"measurement": "reduction of mean lung virus titer compared to placebo-treated controls", "setting": "[5]; [8]", "value": 0.6, "unit": "log10"}, {"measurement": "Tissue Virus Titer ± S.D., Lung", "setting": "[5]; [9]", "value": "3.3 ± 1.9", "unit": "log10 CCID50/g"}, {"measurement": "Tissue Virus Titer ± S.D., Salivary Gland", "setting": "[5]; [9]", "value": "7.6 ± 1.2", "unit": "log10 CCID50/g"}, {"measurement": "Tissue Virus Titer ± S.D., Spleen", "setting": "[5]; [9]", "value": "1.5 ± 2.26", "unit": "log10 CCID50/g"}, {"measurement": "Surv/Total", "setting": "[5]; 0.07 mg/kg/day i.p., days -2,0,+2,+4,+6,+8,+10", "value": "0/8"}, {"measurement": "Mean Day to Death ± S.D.", "setting": "[5]; 0.07 mg/kg/day i.p., days -2,0,+2,+4,+6,+8,+10, P<0.05 vs saline", "value": "13.4 ± 2.6", "unit": "days"}, {"measurement": "Mean Day to Death ± S.D.", "setting": "[5]; [10]", "value": "11.3 ± 0.5", "unit": "days"}, {"measurement": "Surv/Total", "setting": "[5]; [10]", "value": "0/8"}, {"measurement": "Surv/Total", "setting": "[5]; 0.2 mg/kg/day i.p., days -2,0,+2,+4,+6,+8,+10", "value": "0/8"}, {"measurement": "Mean Day to Death ± S.D.", "setting": "[5]; 0.2 mg/kg/day i.p., days -2,0,+2,+4,+6,+8,+10, P<0.01 vs saline", "value": "18.5 ± 3.7", "unit": "days"}, {"measurement": "Mean Day to Death ± S.D.", "setting": "[5]; [11]", "value": "11.6 ± 1.6", "unit": "days"}, {"measurement": "Surv/Total", "setting": "[5]; [11]", "value": "0/7"}, {"measurement": "Mean Day to Death ± S.D.", "setting": "[5]; [12]", "value": "12.1 ± 1.3", "unit": "days"}, {"measurement": "Surv/Total", "setting": "[5]; [12]", "value": "0/7"}, {"measurement": "solubility", "setting": "physchem", "value": "~1000", "unit": "mg/mL"}, {"measurement": "IC50", "setting": "CMV strain AD-169 [6]", "value": 5800, "unit": "nM"}, {"measurement": "IC50", "setting": "CMV strain Towne", "value": 8700, "unit": "nM"}]}]}
